Source: PMC8586704 (Frontiers in Chemistry, 2021)
pIC50: −log10 of the molar value. ≈ marks a conversion by molar mass, not a printed value. Where two headings read alike, the source gives them in different places. Starred links: 1 amine or outer side, 2 acyl side, 3 side chain; linkers in the order of their positions; H or OH if unused. Non-standard residues stand in square brackets, D forms with d. Residues, ends and D or L forms follow the SMILES beside them. Groups on a side chain read outwards from the residue. X8 = O=C(CCc1c[nH]c2ccccc12)Oc1ccc(C[C@H](N[*:1])C(=O)[*:2])cc1[N+](=O)[O-]; X10 = CC[C@H](C)[C@H](NC(=O)[C@@H](C)C[C@@H](C(=O)[*:2])N(C)[*:1])C(=O)OC; X4 = COC(=O)[C@H](CCSC)NC(=O)[C@@H](C)C[C@@H](C(=O)[*:2])N(C)[*:1]; Trp(1-(1,1-Me2-allyl)) = C=CC(C)(C)n1cc(C[C@H](N)C(=O)O)c2ccccc21; NMeGlu(4S-Me) = C[C@@H](C[C@@H](C(=O)[*:2])N(C)[*:1])C(=O)[*:3]; X6 = C[C@@H](C[C@@H](C(=O)[*:2])N(C)[*:1])C(=O)NNC(=O)c1ccncc1; Tyr(3-NO2) = N[C@@H](Cc1ccc(O)c([N+](=O)[O-])c1)C(=O)O; Gly(E-crotyl) = C/C=C/C[C@H](N)C(=O)O; NMeL = CN[C@@H](CC(C)C)C(=O)O

Columns and labels:
[1] = test system: M. tuberculosis H37Rv; test: Antitubercular activity assay, broth dilution, auto-luminescent strain; format: cell-based, Mycobacterium tuberculosis; conditions: Mycobacterium tuberculosis, H37RV
[2] = test system: MCF-7; test: cells; format: cell-based; conditions: Homo sapiens, MCF7; breast adenocarcinoma cell line
[3] = test system: HeLa; test: cells; format: cell-based; conditions: Homo sapiens, cervical carcinoma cell line
[4] = test system: HepG2; test: cells; format: cell-based; conditions: Homo sapiens, hepatocellular carcinoma cell line
[5] = test system: A549; test: Cytotoxicity assay (CCK-8); format: cell-based; conditions: Homo sapiens, lung cancer cell line
[6] = test system: HCT116; test: cells; format: cell-based; conditions: Homo sapiens, HCT-116; colon cancer cell line
[7] = test system: L02; test: cells; format: cell-based; conditions: normal human hepatic cell line
[8] = test system: Huvec-12; test: Cytotoxicity assay (CCK-8); format: cell-based; conditions: normal human umbilical vein endothelial cell line
[9] = Day 3rd, read-out: MICs against H37Rv, Day 3rd
[10] = Day 7th, read-out: MICs against H37Rv, Day 7th
[11] = Day 14th, read-out: MICs against H37Rv, Day 14th

SMILES | MIC [1, 9] | MIC [1, 10] | MIC [1, 11] | pIC50 [2] | pIC50 [3] | pIC50 [4] | pIC50 [5] | pIC50 [6] | pIC50 [7] | pIC50 [8] | MIC ([1]; read-out: MICs against H37Rv, Day 3rd) | MIC ([1]; read-out: MICs against H37Rv, Day 7th) | MIC ([1]; read-out: MICs against H37Rv, Day 14th)
C=CC(C)(C)n1cc(C[C@@H]2NC(=O)[C@H](C/C=C/C)NC(=O)[C@H](CC(C)C)NC(=O)[C@H](C[C@H](C)C(=O)N[C@@H](CCCNC(=N)N)C(=O)OC)N(C)C(=O)[C@H](C)NC(=O)[C@H](Cc3ccc(O)c([N+](=O)[O-])c3)NC(=O)[C@H](CC(C)C)N(C)C2=O)c2ccccc21 [Compound 4, ilamycin NJL4] (cyclo(A[NMeGlu(4S-Me)]([Arg-OMe])L[Gly(E-crotyl)][Trp(1-(1,1-Me2-allyl))][NMeL][Tyr(3-NO2)])) | 26.4 µM (≈ 32 µg/mL) | 26.4 µM (≈ 32 µg/mL) | 26.4 µM (≈ 32 µg/mL) | < 4.30 | 4.59 | < 4.30 | 4.64 | 4.51 | 4.59 | 4.45 | – | – | –
C=CC(C)(C)n1cc(C[C@@H]2NC(=O)[C@H](C/C=C/C)NC(=O)[C@H](CC(C)C)NC(=O)[C@H](C[C@H](C)C(=O)N[C@@H](CCSC)C(=O)OC)N(C)C(=O)[C@H](C)NC(=O)[C@H](Cc3ccc(O)c([N+](=O)[O-])c3)NC(=O)[C@H](CC(C)C)N(C)C2=O)c2ccccc21 [Compound 2, ilamycin NJL2] (cyclo(A[X4]L[Gly(E-crotyl)][Trp(1-(1,1-Me2-allyl))][NMeL][Tyr(3-NO2)])) | 6.7 µM (≈ 7.96 µg/mL) | 6.7 µM (≈ 7.96 µg/mL) | 3.4 µM (≈ 4.04 µg/mL) | < 4.30 | < 4.30 | < 4.30 | < 4.30 | < 4.30 | < 4.30 | < 4.30 | – | – | –
C=CC(C)(C)n1cc(C[C@@H]2NC(=O)[C@H](C/C=C/C)NC(=O)[C@H](CC(C)C)NC(=O)[C@H](C[C@H](C)C(=O)NNC(=O)c3ccncc3)N(C)C(=O)[C@H](C)NC(=O)[C@H](Cc3ccc(O)c([N+](=O)[O-])c3)NC(=O)[C@H](CC(C)C)N(C)C2=O)c2ccccc21 [Compound 13, ilamycin NJL13] (cyclo(A[X6]L[Gly(E-crotyl)][Trp(1-(1,1-Me2-allyl))][NMeL][Tyr(3-NO2)])) | – | – | – | < 4.30 | < 4.30 | < 4.30 | < 4.30 | < 4.30 | < 4.30 | < 4.30 | 27.6 µM (≈ 32.1 µg/mL) | 27.6 µM (≈ 32.1 µg/mL) | 27.6 µM (≈ 32.1 µg/mL)
C=CC(C)(C)n1cc(C[C@@H]2NC(=O)[C@H](C/C=C/C)NC(=O)[C@H](CC(C)C)NC(=O)[C@H](C[C@H](C)C(=O)N[C@H](C(=O)OC)[C@@H](C)CC)N(C)C(=O)[C@H](C)NC(=O)[C@H](Cc3ccc(O)c([N+](=O)[O-])c3)NC(=O)[C@H](CC(C)C)N(C)C2=O)c2ccccc21 [Compound 3, ilamycin NJL3] (cyclo(A[X10]L[Gly(E-crotyl)][Trp(1-(1,1-Me2-allyl))][NMeL][Tyr(3-NO2)])) | 6.8 µM (≈ 7.95 µg/mL) | 6.8 µM (≈ 7.95 µg/mL) | 6.8 µM (≈ 7.95 µg/mL) | < 4.30 | 4.84 | < 4.30 | < 4.30 | < 4.30 | 4.92 | < 4.30 | – | – | –
C=CC(C)(C)n1cc(C[C@@H]2NC(=O)[C@H](C/C=C/C)NC(=O)[C@H](CC(C)C)NC(=O)[C@H](C[C@H](C)C(=O)O)N(C)C(=O)[C@H](C)NC(=O)[C@H](Cc3ccc(OC(=O)CCc4c[nH]c5ccccc45)c([N+](=O)[O-])c3)NC(=O)[C@H](CC(C)C)N(C)C2=O)c2ccccc21 [Compound 16, ilamycin NJL16] (cyclo(A[NMeGlu(4S-Me)]L[Gly(E-crotyl)][Trp(1-(1,1-Me2-allyl))][NMeL][X8])) | 26.4 µM (≈ 32 µg/mL) | 26.4 µM (≈ 32 µg/mL) | 26.4 µM (≈ 32 µg/mL) | < 4.30 | < 4.30 | < 4.30 | < 4.30 | < 4.30 | < 4.30 | < 4.30 | – | – | –
COc1cccc2c1C(=O)c1c(O)c3c(c(O)c1C2=O)C[C@@](O)(C(=O)CO)C[C@@H]3O[C@H]1C[C@H](N)[C@H](O)[C@H](C)O1 [doxorubicin, reference compound] | – | – | – | 5.40 | 6.15 | 6.22 | 5.82 | 5.40 | 5.11 | 4.92 | – | – | –
